{"source": "BindingDB's records for doi:10.1021/jm100555f", "about": "(Harvard Medical School, 2010)"}
{"test": "Inhibition of Bcr-Abl in mouse BA/F3 cells", "units": {"EC50": "nM"}}
{"smiles": "Cc1nc(C)c(Cn2ncc3c(Nc4ccc(OC(F)(F)F)cc4)ncnc32)s1", "note": "[1-((2,4-dimethylthiazol-5-yl)methyl)-N-(4-(trifluoromethoxy)phenyl)-1H-pyrazolo[3,4-d]pyrimidin-4-amine]", "EC50": 6920}
{"smiles": "FC(F)(F)Oc1ccc(Nc2ncnc3c2cnn3CC2CCOC2)cc1", "note": "(centres undefined) [1-((tetrahydrofuran-3-yl)methyl)-N-(4-(trifluoromethoxy)phenyl)-1H-pyrazolo[3,4-d]pyrimidin-4-amine]", "EC50": 690}
{"smiles": "FC(F)(F)Oc1ccc(Nc2ncnc3c2cnn3Cc2cccnc2)cc1", "note": "[1-(pyridin-3-ylmethyl)-N-(4-(trifluoromethoxy)phenyl)-1H-pyrazolo[3,4-d]pyrimidin-4-amine]", "EC50": 7150}
{"smiles": "FC(F)(F)Oc1ccc(Nc2ncnc3c2cnn3Cc2ccccc2)cc1", "note": "[1-benzyl-N-(4-(trifluoromethoxy)phenyl)-1H-pyrazolo[3,4-d]pyrimidin-4-amine]", "EC50": 400}
{"smiles": "FC(F)(F)Oc1ccc(Nc2ncnc3c2cnn3C2CCCCC2)cc1", "note": "[1-cyclohexyl-N-(4-(trifluoromethoxy)phenyl)-1H-pyrazolo[3,4-d]pyrimidin-4-amine]", "EC50": 400}
{"smiles": "CCn1ncc2c(Nc3ccc(OC(F)(F)F)cc3)ncnc21", "note": "[1-ethyl-N-(4-(trifluoromethoxy)phenyl)-1H-pyrazolo[3,4-d]pyrimidin-4-amine]", "EC50": 300}
{"smiles": "CCCn1ncc2c(Nc3ccc(OC(F)(F)F)cc3)ncnc21", "note": "[1-propyl-N-(4-(trifluoromethoxy)phenyl)-1H-pyrazolo[3,4-d]pyrimidin-4-amine]", "EC50": 270}
{"smiles": "CC(C)(C)n1ncc2c(Nc3ccc(OC(F)(F)F)cc3)ncnc21", "note": "[1-tert-butyl-N-(4-(trifluoromethoxy)phenyl)-1H-pyrazolo[3,4-d]pyrimidin-4-amine]", "EC50": 160}
{"smiles": "OCCn1ncc2c(Nc3ccc(OC(F)(F)F)cc3)ncnc21", "note": "[2-(4-(4-(Trifluoromethoxy)phenylamino)-1H-pyrazolo-[3,4-d]pyrimidin-1-yl)ethanol]", "EC50": 250}
{"smiles": "OCCn1cc2c(Nc3ccc(OC(F)(F)F)cc3)ncnc2n1", "note": "[2-(4-(4-(Trifluoromethoxy)phenylamino)-2H-pyrazolo[3,4-d]pyrimidin-2-yl)ethanol]", "EC50": 1320}
{"smiles": "NC(=O)Cn1ncc2c(Nc3ccc(OC(F)(F)F)cc3)ncnc21", "note": "[2-(4-(4-(trifluoromethoxy)phenylamino)-1H-pyrazolo[3,4-d]pyrimidin-1-yl)acetamide]", "EC50": 350}
{"smiles": "NC(=O)Cn1cc2c(Nc3ccc(OC(F)(F)F)cc3)ncnc2n1", "note": "[2-(4-(4-(trifluoromethoxy)phenylamino)-2H-pyrazolo[3,4-d]pyrimidin-2-yl)acetamide]", "EC50": 4340}
{"smiles": "NC(=O)c1ccccc1-c1cc(Nc2ccc(OC(F)(F)F)cc2)ncn1", "note": "[2-(6-(4-(trifluoromethoxy)phenylamino)pyrimidin-4-yl)benzamide]", "EC50": "> 10000"}
{"smiles": "FC(F)(F)Oc1ccc(Nc2ncnc3nn(Cc4cccnc4)cc23)cc1", "note": "[2-(pyridin-3-ylmethyl)-N-(4-(trifluoromethoxy)phenyl)-2H-pyrazolo[3,4-d]pyrimidin-4-amine]", "EC50": 1700}
{"smiles": "FC(F)(F)Oc1ccc(Nc2ncnc3nn(Cc4ccccc4)cc23)cc1", "note": "[2-benzyl-N-(4-(trifluoromethoxy)phenyl)-2H-pyrazolo[3,4-d]pyrimidin-4-amine]", "EC50": "> 10000"}
{"smiles": "FC(F)(F)Oc1ccc(Nc2ncnc3nn(C4CCCCC4)cc23)cc1", "note": "[2-cyclohexyl-N-(4-(trifluoromethoxy)phenyl)-2H-pyrazolo[3,4-d]pyrimidin-4-amine]", "EC50": 2200}
{"smiles": "CCn1cc2c(Nc3ccc(OC(F)(F)F)cc3)ncnc2n1", "note": "[2-ethyl-N-(4-(trifluoromethoxy)phenyl)-2H-pyrazolo[3,4-d]pyrimidin-4-amine]", "EC50": 1200}
{"smiles": "CCCn1cc2c(Nc3ccc(OC(F)(F)F)cc3)ncnc2n1", "note": "[2-propyl-N-(4-(trifluoromethoxy)phenyl)-2H-pyrazolo[3,4-d]pyrimidin-4-amine]", "EC50": 160}
{"smiles": "NC(=O)CCn1ccc2c(Nc3ccc(OC(F)(F)F)cc3)ncnc21", "note": "[3-(4-(4-(trifluoromethoxy)phenylamino)-7H-pyrrolo[2,3-d]pyrimidin-7-yl)propanamide]", "EC50": 490}
{"smiles": "NS(=O)(=O)c1cccc(-c2cc(Nc3ccc(OC(F)(F)F)cc3)ncn2)c1", "note": "[3-(6-(4-(trifluoromethoxy)phenylamino)pyrimidin-4-yl)benzenesulfonamide]", "EC50": 580}
{"smiles": "NC(=O)c1cccc(Nc2cc(Nc3ccc(OC(F)(F)F)cc3)ncn2)c1", "note": "[3-(6-(4-(trifluoromethoxy)phenylamino)pyrimidin-4-ylamino)benzamide]", "EC50": 2920}
{"smiles": "NC(=O)c1cccc(Oc2cc(Nc3ccc(OC(F)(F)F)cc3)ncn2)c1", "note": "[3-(6-(4-(trifluoromethoxy)phenylamino)pyrimidin-4-yloxy)benzamide]", "EC50": 5000}
{"smiles": "O=C(O)c1cc2c(Nc3ccc(OC(F)(F)F)cc3)ncnc2s1", "note": "[4-(4-(trifluoromethoxy)phenylamino)thieno[2,3-d]pyrimidine-6-carboxylic acid]", "EC50": "> 10000"}
{"smiles": "NC(=O)c1ccc(-c2cc(Nc3ccc(OC(F)(F)F)cc3)ncn2)cc1", "note": "[4-(6-(4-(trifluoromethoxy)phenylamino)pyrimidin-4-yl)benzamide]", "EC50": 480}
{"smiles": "NS(=O)(=O)c1ccc(-c2cc(Nc3ccc(OC(F)(F)F)cc3)ncn2)cc1", "note": "[4-(6-(4-(trifluoromethoxy)phenylamino)pyrimidin-4-yl)benzenesulfonamide]", "EC50": 120}
{"smiles": "NC(=O)c1ccc(Cn2ncc3c(Nc4ccc(OC(F)(F)F)cc4)ncnc32)cc1", "note": "[4-((4-(4-(trifluoromethoxy)phenylamino)-1H-pyrazolo[3,4-d]pyrimidin-1-yl)methyl)benzamide]", "EC50": 6890}
{"smiles": "Cc1c(NCCN2CCOCC2)ncnc1Nc1ccc(OC(F)(F)F)cc1", "note": "[5-methyl-N4-(2-morpholinoethyl)-N6-(4-(trifluoromethoxy)phenyl)pyrimidine-4,6-diamine]", "EC50": 970}
{"smiles": "CC(C)Cn1cc(-c2cc(Nc3ccc(OC(F)(F)F)cc3)ncn2)cn1", "note": "[6-(1-isobutyl-1H-pyrazol-4-yl)-N-(4-(trifluoromethoxy)phenyl)pyrimidin-4-amine]", "EC50": 360}
{"smiles": "FC(F)(F)Oc1ccc(Nc2cc(-n3ccnc3)ncn2)cc1", "note": "[6-(1H-imidazol-1-yl)-N-(4-(trifluoromethoxy)phenyl)pyrimidin-4-amine]", "EC50": 1660}
{"smiles": "FC(F)(F)Oc1ccc(Nc2cc(-c3cccc4[nH]ccc34)ncn2)cc1", "note": "[6-(1H-indol-4-yl)-N-(4-(trifluoromethoxy)phenyl)pyrimidin-4-amine]", "EC50": 140}
{"smiles": "FC(F)(F)Oc1ccc(Nc2cc(-c3ccc4[nH]ccc4c3)ncn2)cc1", "note": "[6-(1H-indol-5-yl)-N-(4-(trifluoromethoxy)phenyl)pyrimidin-4-amine]", "EC50": 290}
{"smiles": "FC(F)(F)Oc1ccc(Nc2cc(-c3cn[nH]c3)ncn2)cc1", "note": "[6-(1H-pyrazol-4-yl)-N-(4-(trifluoromethoxy)phenyl)pyrimidin-4-amine]", "EC50": 90}
{"smiles": "FC(F)(F)Oc1ccc(Nc2cc(-c3ccnc4[nH]ccc34)ncn2)cc1", "note": "[6-(1H-pyrrolo[2,3-b]pyridin-4-yl)-N-(4-(trifluoromethoxy)phenyl)pyrimidin-4-amine]", "EC50": 170}
{"smiles": "Cc1nc(-c2cc(Nc3ccc(OC(F)(F)F)cc3)ncn2)cs1", "note": "[6-(2-methylthiazol-4-yl)-N-(4-(trifluoromethoxy)phenyl)pyrimidin-4-amine]", "EC50": 1230}
{"smiles": "CS(=O)(=O)c1cccc(-c2cc(Nc3ccc(OC(F)(F)F)cc3)ncn2)c1", "note": "[6-(3-(methylsulfonyl)phenyl)-N-(4-(trifluoromethoxy)phenyl)pyrimidin-4-amine]", "EC50": 390}
{"smiles": "Nc1cccc(-c2cc(Nc3ccc(OC(F)(F)F)cc3)ncn2)c1", "note": "[6-(3-aminophenyl)-N-(4-(trifluoromethoxy)phenyl)pyrimidin-4-amine]", "EC50": 330}
{"smiles": "Cc1c(-c2cc(Nc3ccc(OC(F)(F)F)cc3)ncn2)cnn1-c1ccccc1", "note": "[6-(5-methyl-1-phenyl-1H-pyrazol-4-yl)-N-(4-(trifluoromethoxy)phenyl)pyrimidin-4-amine]", "EC50": 810}
{"smiles": "FC(F)(F)Oc1ccc(Nc2cc(-c3ccncc3)ncn2)cc1", "note": "[6-(pyridin-4-yl)-N-(4-(trifluoromethoxy)phenyl)pyrimidin-4-amine]", "EC50": 470}
{"smiles": "FC(F)(F)c1ccc(Nc2cc(-c3ccncc3)ncn2)cc1", "note": "[6-(pyridin-4-yl)-N-(4-(trifluoromethyl)phenyl)pyrimidin-4-amine]", "EC50": 1270}
{"smiles": "FC(F)(F)c1ccc(Nc2cc(-c3ccncc3)ncn2)cn1", "note": "[6-(pyridin-4-yl)-N-(6-(trifluoromethyl)pyridin-3-yl)pyrimidin-4-amine]", "EC50": 1240}
{"smiles": "FC(F)(F)Oc1ccc(Nc2cc(N3CCOCC3)ncn2)cc1", "note": "[6-morpholino-N-(4-(trifluoromethoxy)phenyl)pyrimidin-4-amine]", "EC50": 1800}
{"smiles": "FC(F)(F)Oc1ccc(Nc2ncnc3c2ccn3CCN2CCOCC2)cc1", "note": "[7-(2-morpholinoethyl)-N-(4-(trifluoromethoxy)phenyl)-7H-pyrrolo[2,3-d]pyrimidin-4-amine]", "EC50": 380}
{"smiles": "Cn1ccc2c(Nc3ccc(OC(F)(F)F)cc3)ncnc21", "note": "[7-methyl-N-(4-(trifluoromethoxy)phenyl)-7H-pyrrolo[2,3-d]pyrimidin-4-amine]", "EC50": 6890}
{"smiles": "O=C(c1cc2c(Nc3ccc(OC(F)(F)F)cc3)ncnc2s1)N1CCC(O)CC1", "note": "[(4-hydroxypiperidin-1-yl)(4-(4-(trifluoromethoxy)phenylamino)thieno[2,3-d]pyrimidin-6-yl)methanone]", "EC50": 1960}
{"smiles": "CN1CCN(C(=O)c2cc3c(Nc4ccc(OC(F)(F)F)cc4)ncnc3s2)CC1", "note": "[(4-methylpiperazin-1-yl)(4-(4-(trifluoromethoxy)phenylamino)thieno[2,3-d]pyrimidin-6-yl)methanone]", "EC50": 48}
{"smiles": "FC(F)(F)Oc1ccc(Nc2ncnc(NCCN3CCOCC3)n2)cc1", "note": "[N2-(2-morpholinoethyl)-N4-(4-(trifluoromethoxy)phenyl)-1,3,5-triazine-2,4-diamine]", "EC50": "> 10000"}
{"smiles": "FC(F)(F)Oc1ccc(Nc2ccnc(NCCN3CCOCC3)n2)cc1", "note": "[N2-(2-morpholinoethyl)-N4-(4-(trifluoromethoxy)phenyl)pyrimidine-2,4-diamine]", "EC50": "> 10000"}
{"smiles": "FC(F)(F)Oc1ccc(Nc2cncc(NCCN3CCOCC3)n2)cc1", "note": "[N2-(2-morpholinoethyl)-N6-(4-(trifluoromethoxy)phenyl)pyrazine-2,6-diamine]", "EC50": "> 10000"}
{"smiles": "FC(F)(F)Oc1ccc(Nc2ccc(NCCN3CCOCC3)nn2)cc1", "note": "[N3-(2-morpholinoethyl)-N6-(4-(trifluoromethoxy)phenyl)pyridazine-3,6-diamine]", "EC50": "> 10000"}
